The source of these data is patent US9580463B2 (BRISTOL-MYERS SQUIBB COMPANY, priority 2013, dated 2017).

In assay [1] the test system is HCV genotype 1a (H77 strain) replicon in HUH-7 cells. Kind of assay: HCV replicon luciferase reporter assay, genotype 1a. The class given is cell-based. Particulars: Hepatitis C virus, 72 h, genotype 1a replicon, 3 days incubation. A digest of the protocol:
(§1)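 Twenty-point, threefold compound titrations (0.5% DMSO) were incubated 3 days at 37 °C with 3.0×10^3 HUH-7 cells/well in 4% FCS. The cells stably carried luciferase replicons: genotype 1b Con1 (S1179I) or 1a H77 (NS3 P1496L, NS5A S2204I). Renilla signal was read after 2 h with 7.5 μM EnduRen, and EC50 was taken from a four-parameter logistic fit. Cytotoxicity (CC50) was measured by Cell Titer-Blue, 8 h.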

Assay [2] concerns HCV genotype 1b (Con1) replicon in HUH-7 cells. Kind of assay: HCV replicon luciferase reporter assay, genotype 1b. The class given is cell-based. The note with it: Hepatitis C virus, 72 h, genotype 1b replicon, 3 days incubation. A digest of the protocol: as §1

Like-named read-outs stand apart in the source and are kept apart here.

As to `COC[C@@H]1C[C@@H](C)CC/C=C\[C@@H]2C[C@@]2(C(=O)NS(=O)(=O)C2(C)CC2)NC(=O)[C@@H]2C[C@@H](Oc3nc4cc(OC)ccc4nc3C(F)(F)F)CN2C(=O)[C@H]1NC(=O)OC(C)(C)C` [Compound 1027, tert-butyl ((2R,6S,7R,9S,13aS,14aR,16aS,Z)-2-((7-methoxy-3-(trifluoromethyl)quinoxalin-2-yl)oxy)-7-(methoxymethyl)-9-methyl-14a-(((1-methylcyclopropyl)sulfonyl)carbamoyl)-5,16-dioxo-1,2,3,5,6,7,8,9,10,11,13a,14,14a,15,16,16a-hexadecahydrocyclopropa[e]pyrrolo[1,2-a][1,4]diazacyclopentadecin-6-yl)carbamate], the EC50 in assay [1] (read-out: LE_1a (EC50, range)) fell in the range of 5.01 to 35 nM; in assay [2] (read-out: LE_1b (EC50, range)), 1.01 to 5 nM.

`COC[C@@H]1C[C@H](C)CC/C=C\[C@@H]2C[C@@]2(C(=O)NS(=O)(=O)C2(C)CC2)NC(=O)[C@@H]2C[C@@H](Oc3nc4cc(OC)ccc4nc3C(F)(F)F)CN2C(=O)[C@H]1NC(=O)OC(C)(C)C` [Compound 1028, tert-butyl ((2R,6S,7R,9R,13aS,14aR,16aS,Z)-2-((7-methoxy-3-(trifluoromethyl)quinoxalin-2-yl)oxy)-7-(methoxymethyl)-9-methyl-14a-(((1-methylcyclopropyl)sulfonyl)carbamoyl)-5,16-dioxo-1,2,3,5,6,7,8,9,10,11,13a,14,14a,15,16,16a-hexadecahydrocyclopropa[e]pyrrolo[1,2-a][1,4]diazacyclopentadecin-6-yl)carbamate]: the EC50 in assay [1] (read-out: LE_1a (EC50, range)) was 0.51 to 1 nM; in assay [2] (read-out: LE_1b (EC50, range)), 0.1 to 0.5 nM.

In the case of `COC[C@@H]1C[C@@H](C)CC/C=C\[C@@H]2C[C@@]2(C(=O)NS(=O)(=O)C2(C)CC2)NC(=O)[C@@H]2C[C@@H](Oc3nc4cc(OC)ccc4nc3C(C)C)CN2C(=O)[C@H]1NC(=O)OC(C)(C)C` [Compound 1029, tert-butyl ((2R,6S,7R,9S,13aS,14aR,16aS,Z)-2-((3-isopropyl-7-methoxyquinoxalin-2-yl)oxy)-7-(methoxymethyl)-9-methyl-14a-(((1-methylcyclopropyl)sulfonyl)carbamoyl)-5,16-dioxo-1,2,3,5,6,7,8,9,10,11,13a,14,14a,15,16,16a-hexadecahydrocyclopropa[e]pyrrolo[1,2-a][1,4]diazacyclopentadecin-6-yl)carbamate], the EC50 in assay [1] (read-out: LE_1a (EC50)) is 1.78 nM; in assay [1] (read-out: LE_1a (EC50, range)), 1.01 to 5 nM; in assay [2] (read-out: LE_1b (EC50)) it was 0.63 nM; in assay [2] (read-out: LE_1b (EC50, range)) it was 0.51 to 1 nM.

For `COC[C@@H]1C[C@H](C)CC/C=C\[C@@H]2C[C@@]2(C(=O)NS(=O)(=O)C2(C)CC2)NC(=O)[C@@H]2C[C@@H](Oc3nc4cc(OC)ccc4nc3C(C)C)CN2C(=O)[C@H]1NC(=O)OC(C)(C)C` [Compound 1030, tert-butyl ((2R,6S,7R,9R,13aS,14aR,16aS,Z)-2-((3-isopropyl-7-methoxyquinoxalin-2-yl)oxy)-7-(methoxymethyl)-9-methyl-14a-(((1-methylcyclopropyl)sulfonyl)carbamoyl)-5,16-dioxo-1,2,3,5,6,7,8,9,10,11,13a,14,14a,15,16,16a-hexadecahydrocyclopropa[e]pyrrolo[1,2-a][1,4]diazacyclopentadecin-6-yl)carbamate], the EC50 in assay [1] (read-out: LE_1a (EC50, range)) lay in the range of 35 to 620 nM; in assay [2] (read-out: LE_1b (EC50, range)) it was 5.01 to 35 nM.

On to `COC[C@@H]1C[C@@H](C)CC/C=C\[C@@H]2C[C@@]2(C(=O)NS(=O)(=O)C2(C)CC2)NC(=O)[C@@H]2C[C@@H](Oc3nc4cc(OC)ccc4nc3C(F)(F)F)CN2C(=O)[C@H]1NC(=O)OC(C)(C)C(F)(F)F` [Compound 1031, 1,1,1-trifluoro-2-methylpropan-2-yl ((2R,6S,7R,9S,13aS,14aR,16aS,Z)-2-((7-methoxy-3-(trifluoromethyl)quinoxalin-2-yl)oxy)-7-(methoxymethyl)-9-methyl-14a-(((1-methylcyclopropyl)sulfonyl)carbamoyl)-5,16-dioxo-1,2,3,5,6,7,8,9,10,11,13a,14,14a,15,16,16a-hexadecahydrocyclopropa[e]pyrrolo[1,2-a][1,4]diazacyclopentadecin-6-yl)carbamate], for which the EC50 in assay [1] (read-out: LE_1a (EC50, range)) was 5.01 to 35 nM; in assay [2] (read-out: LE_1b (EC50, range)), 1.01 to 5 nM.
